Source: US8420823B2, “Long-chain fatty acyl elongase inhibitor comprising arylsulfonyl derivative as active ingredient” (MSD K.K., priority 2008, dated 2013)
Counter-ions that a name gives are not always drawn.

Biological target: T1, human LCE (Homo sapiens, UniProt Q9H5J4)
T1 sequence (Q9H5J4 1-265): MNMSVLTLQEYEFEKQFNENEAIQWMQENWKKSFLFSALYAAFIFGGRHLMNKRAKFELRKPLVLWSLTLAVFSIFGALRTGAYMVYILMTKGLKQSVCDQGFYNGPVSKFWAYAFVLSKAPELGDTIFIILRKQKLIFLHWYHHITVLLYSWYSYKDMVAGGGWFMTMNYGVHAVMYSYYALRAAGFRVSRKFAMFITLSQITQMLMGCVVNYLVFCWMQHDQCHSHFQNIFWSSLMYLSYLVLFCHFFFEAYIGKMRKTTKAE
Experiment: LCE enzyme activity-inhibitory test
Assay type: biochemical
Details: [14C]-malonyl CoA / palmitoyl CoA substrate, 37° C., 90 minutes
Procedure: Pharmacological Test Example 1 (LCE Enzyme Activity-inhibitory Test)
A test compound was dissolved in dimethyl sulfoxide (DMSO to be 10 mM), and then diluted with DMSO to prepare a 1000-fold concentrated solution of the test concentration. An improved Moon et al's method (J. Biol. Chem., Vol. 276, pp. 45358-45366, 2001) was employed for the LCE enzyme activity-inhibitor test. Concretely, the diluted compound was applied to a 96-well assay plate (Corning, 96-well assay block) in an amount of 1.0 μL/well; 50 μL of a phosphate buffer solution (100 mM potassium phosphate buffer, pH 6.5), and 25 μL of a substrate solution (100 mM potassium phosphate buffer (pH 6.5), 4.0 μM rotenone, 80 μM fatty acid-free bovine serum albumin, 160 μM palmitoyl CoA, 80 μM malonyl CoA, 3.5 μM [^14C]-malonyl CoA (1.92 GBq/mmol, by Amersham)) were added to each well; 25 μL of an enzyme solution (100 mM potassium phosphate buffer (pH 6.5), 100 μg/mL human LCE) was added thereto; the top of the plate was airtightly sealed up; and this was incubated with gently shaking and stirring at 37° C. for 90 minutes. Next, 100 μL of 5 M hydrochloric acid was added to each well, and the assay plate was stirred at room temperature for 5 minutes to stop the enzyme reaction with hydrolyzing the acyl CoA. Next, the enzyme reaction solution in each well was adsorbed by each well of a 96-well GF/C filter plate (Perkin Elmer Unifilter 96 GF/C); the individual wells were washed with water to remove the non-adsorbed malonyl CoA; and the GF/C filter plate was dried at 50° C. for 60 minutes. Next, 30 μL of a scintillator (Perkin Elmer Microscinti 0) was added to each well; then the top of the plate was sealed up; and the fixed [^14C] radioactivity was measured with a microplate scintillation counter (Perkin Elmer TopCount) to be the enzyme activity. The human LCE enzyme-inhibitory activity of the test compound was calculated, based on the radioactivity of the DMSO-added well with no test compound therein as a control.

Row | SMILES | IC50
1 | CC(C)Oc1cc(NC(=O)c2cccc(S(=O)(=O)N3CCC(F)(F)CC3)c2)[nH]n1 [Example 68, 5-({3-[(4,4-difluoropiperidin-1-yl)sulfonyl]benzoyl}amino)-3-isopropoxy-1H-pyrazole hydrochloride] | 13 nM
2 | CC(C)Oc1cc(NC(=O)c2cccc(S(=O)(=O)N3CCCCC3)c2)[nH]n1 [Example 69, 3-Isopropoxy-5-{[3-(piperidin-1-ylsulfonyl)benzoyl}amino]-1H-pyrazole hydrochloride] | 2.3 nM
3 | CC(C)Oc1cc(NC(=O)c2cccc(S(=O)(=O)N3CCCC3)c2)[nH]n1 [Example 70, N-(3-isopropoxy-1H-pyrazol-5-yl)-3-(pyrrolidin-1-ylsulfonyl)benzamide hydrochloride] | 6.8 nM
4 | O=C(Nc1ccc(F)cc1)c1cccc(S(=O)(=O)N2CCCCC2)c1 [Example 71, N-(4-fluorophenyl)-3-(piperidin-1-ylsulfonyl)benzamide] | 14000 nM
5 | O=C(Nc1ccc(C(F)(F)F)cc1)c1cccc(S(=O)(=O)N2CCCCC2)c1 [Example 72, 3-(Piperidin-1-ylsulfonyl)-N-[4-(trifluoromethyl)phenyl]benzamide] | 1200 nM
6 | O=C(NCc1ccccc1)c1cccc(S(=O)(=O)N2CCCCC2)c1 [Example 73, N-benzyl-3-(piperidin-1-ylsulfonyl)benzamide] | 5500 nM
7 | O=C(Nc1ccccn1)c1cccc(S(=O)(=O)N2CCCCC2)c1 [Example 74, 2-{[3-(Piperidin-1-ylsulfonyl)benzoyl}amino]pyridine trifluoroacetate] | 4900 nM
8 | O=C(Nc1cccc2cnccc12)c1cccc(S(=O)(=O)N2CCCCC2)c1 [Example 76, 5-{[3-(piperidin-1-ylsulfonyl)benzoyl]amino}isoquinoline trifluoroacetate] | 2600 nM
9 | CC(C)c1ccc(NC(=O)c2cccc(S(=O)(=O)N3CCCCC3)c2)cc1 [Example 77, N-(4-isopropylphenyl)-3-(piperidin-1-ylsulfonyl)benzamide] | 34 nM
10 | O=C(NCCc1ccccc1)c1cccc(S(=O)(=O)N2CCCCC2)c1 [Example 78, N-(2-phenylethyl)-3-(piperidin-1-ylsulfonyl)benzamide] | 7900 nM
11 | CSc1ccc(NC(=O)c2cccc(S(=O)(=O)N3CCCCC3)c2)cc1 [Example 79, N-[4-(methylthio)phenyl]-3-(piperidin-1-ylsulfonyl)benzamide] | 2200 nM
12 | COc1ccccc1NC(=O)c1cccc(S(=O)(=O)N2CCCCC2)c1 [Example 80, N-(2-methoxyphenyl)-3-(piperidin-1-ylsulfonyl)benzamide] | 44 nM
13 | COc1cccc(NC(=O)c2cccc(S(=O)(=O)N3CCCCC3)c2)c1 [Example 81, N-(3-methoxyphenyl)-3-(piperidin-1-ylsulfonyl)benzamide] | 1900 nM
14 | O=C(Nc1ccon1)c1cccc(S(=O)(=O)N2CCCCC2)c1 [Example 82, N-isoxazol-3-yl-3-(piperidin-1-ylsulfonyl)benzamide] | 7300 nM
15 | O=C(N[C@H]1CCCc2ccccc21)c1cccc(S(=O)(=O)N2CCCCC2)c1 [Example 83, 3-(Piperidin-1-ylsulfonyl)-N-[(1S)-1,2,3,4-tetrahydronaphthalen-1-yl]benzamide] | 5000 nM
16 | Cc1ccc(NC(=O)c2cccc(S(=O)(=O)N3CCCCC3)c2)cc1 [Example 84, N-(4-methylphenyl)-3-(piperidin-1-ylsulfonyl)benzamide] | 2600 nM
17 | O=C(NC1CCc2ccccc21)c1cccc(S(=O)(=O)N2CCCCC2)c1 (stereo not drawn) [Example 85, N-(2,3-dihydro-1H-inden-1-yl)-3-(piperidin-1-ylsulfonyl)benzamide] | 6000 nM
18 | O=C(NCCCc1ccccc1)c1cccc(S(=O)(=O)N2CCCCC2)c1 [Example 86, N-(3-phenylpropyl)-3-(piperidin-1-ylsulfonyl)benzamide] | 3000 nM
19 | O=C(Nc1ccc(Oc2ccccc2)cc1)c1cccc(S(=O)(=O)N2CCCCC2)c1 [Example 87, N-(4-phenoxyphenyl)-3-(piperidin-1-ylsulfonyl)benzamide] | 210 nM
20 | O=C(Nc1ccccc1)c1cccc(S(=O)(=O)N2CCCCC2)c1 [Example 88, N-phenyl-3-(piperidin-1-ylsulfonyl)benzamide] | 2200 nM

Row | SMILES | IC50
21 | O=C(Nc1ccccc1Cl)c1cccc(S(=O)(=O)N2CCCCC2)c1 [Example 89, N-(2-chlorophenyl)-3-(piperidin-1-ylsulfonyl)benzamide] | 1500 nM
22 | O=C(Nc1cccc(Cl)c1)c1cccc(S(=O)(=O)N2CCCCC2)c1 [Example 90, N-(3-chlorophenyl)-3-(piperidin-1-ylsulfonyl)benzamide] | 9600 nM
23 | CC(C)Oc1ccc(NC(=O)c2cccc(S(=O)(=O)N3CCCCC3)c2)cc1 [Example 91, N-(4-isopropoxyphenyl)-3-(piperidin-1-ylsulfonyl)benzamide] | 31 nM
24 | CC(=O)c1ccc(NC(=O)c2cccc(S(=O)(=O)N3CCCCC3)c2)cc1 [Example 92, N-(4-acetylphenyl)-3-(piperidin-1-ylsulfonyl)benzamide] | 9100 nM
25 | CC(O)c1ccc(NC(=O)c2cccc(S(=O)(=O)N3CCCCC3)c2)cc1 (stereo not drawn) [Example 93, N-[4-(1-hydroxyethyl)phenyl]-3-(piperidin-1-ylsulfonyl)benzamide] | 1300 nM
26 | CC(C)(O)c1ccc(NC(=O)c2cccc(S(=O)(=O)N3CCCCC3)c2)cc1 [Example 94, N-[4-(1-hydroxy-1-methylethyl)phenyl]-3-(piperidin-1-ylsulfonyl)benzamide] | 5100 nM
27 | COc1ccc(NC(=O)c2cccc(S(=O)(=O)N3CCCCC3)c2)c(OC)n1 [Example 96, N-(2,6-dimethoxypyridin-3-yl)-3-(piperidin-1-ylsulfonyl)benzamide] | 320 nM
28 | COc1ncccc1NC(=O)c1cccc(S(=O)(=O)N2CCCCC2)c1 [Example 97, N-(2-methoxypyridin-3-yl)-3-(piperidin-1-ylsulfonyl)benzamide] | 2500 nM
29 | O=C(Nc1ncccc1O)c1cccc(S(=O)(=O)N2CCCCC2)c1 [Example 98, N-(3-hydroxypyridin-2-yl)-3-(piperidin-1-ylsulfonyl)benzamide] | 260 nM
30 | COc1cccnc1NC(=O)c1cccc(S(=O)(=O)N2CCCCC2)c1 [Example 99, N-(3-methoxypyridin-2-yl)-3-(piperidin-1-ylsulfonyl)benzamide] | 36 nM
31 | CC(C)Oc1ccc(NC(=O)c2cccc(S(=O)(=O)N3CCCCC3)c2)cn1 [Example 100, N-(6-isopropoxypyridin-3-yl)-3-(piperidin-1-ylsulfonyl)benzamide] | 39 nM
32 | O=C(Nc1ccc(Oc2ccccc2)nc1)c1cccc(S(=O)(=O)N2CCCCC2)c1 [Example 101, N-(6-phenoxypyridin-3-yl)-3-(piperidin-1-ylsulfonyl)benzamide] | 910 nM
33 | COc1ccc(NC(=O)c2cccc(S(=O)(=O)N3CCCCC3)c2)cn1 [Example 102, N-(6-methoxypyridin-3-yl)-3-(piperidin-1-ylsulfonyl)benzamide] | 3400 nM
34 | COc1cccnc1NC(=O)c1cccc(S(=O)(=O)N2CCCC2)c1 [Example 104, N-(3-methoxypyridin-2-yl)-3-(pyrrolidin-1-ylsulfonyl)benzamide] | 160 nM
35 | O=C(Nc1cc(C2CC2)n[nH]1)c1cccc(S(=O)(=O)N2CCCCC2)c1 [Example 105, N-(3-cyclopropyl-1H-pyrazol-5-yl)-3-(piperidin-1-ylsulfonyl)benzamide] | 84 nM
36 | COc1cc(Br)cnc1NC(=O)c1cccc(S(=O)(=O)N2CCCCC2)c1 [Example 106, N-(5-bromo-3-methoxypyridin-2-yl)-3-(piperidin-1-ylsulfonyl)benzamide] | 1800 nM
37 | C=Cc1cnc(NC(=O)c2cccc(S(=O)(=O)N3CCCCC3)c2)c(OC)c1 [Example 107, N-(3-methoxy-5-vinylpyridin-2-yl)-3-(piperidin-1-ylsulfonyl)benzamide] | 520 nM
38 | CCc1cnc(NC(=O)c2cccc(S(=O)(=O)N3CCCCC3)c2)c(OC)c1 [Example 108, N-(5-ethyl-3-methoxypyridin-2-yl)-3-(piperidin-1-ylsulfonyl)benzamide] | 100 nM
39 | COc1cc(-c2ccccc2)cnc1NC(=O)c1cccc(S(=O)(=O)N2CCCC2)c1 [Example 109, N-(3-methoxy-5-phenylpyridin-2-yl)-3-(pyrrolidin-1-ylsulfonyl)benzamide] | 3200 nM
